Paper PMC8770581 (ChemMedChem, 2021)
“Also recorded” adds a separate entry of the source. Like-named read-outs stand apart in the source and are kept apart here.

How the values were obtained:
[1] = molecular target: tau fibrils (Tau-441, 2N4R) (Homo sapiens, UniProt P10636); experiment: Tau fibril/ligand saturation binding assay; settings: for α-syn versus tau binding selectivity: from Kd tau and Kd α-syn
[2] = molecular target: T1, α-syn fibrils (Homo sapiens, UniProt P37840); experiment: α-Synuclein fibril/ligand saturation binding assay; settings: for Kd: Kd α-syn, mean ± SD (n = 3); for selectivity for α-syn fibrils compared with amyloid-β (Aβ) and tau fibrils: abstract; for Selectivity α-syn v/s Aβ: from Kd Aβ and Kd α-syn
[3] = Absorption/emission maxima and fluorescence quantum yield of free ligand in PBS; format: physicochemical; settings: for Absmax / Emmax: free ligand in PBS
[4] = molecular target: Aβ plaques in human AD brain tissue (Homo sapiens, UniProt P05067); experiment: Fluorescent staining of human AD brain tissue sections; settings: cortical sections, co-stained with antibody 4G8
Sequence of Aβ plaques in human AD brain tissue (P05067 672-711 limits assumed): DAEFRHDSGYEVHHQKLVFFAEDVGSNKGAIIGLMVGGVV

[5] = molecular target: Aβ (1–40) fibrils (Homo sapiens, UniProt P05067); experiment: Aβ fibril/ligand saturation binding assay
Sequence of Aβ (1–40) fibrils (P05067 672-711): as the sequence (P05067 672-711 limits assumed) above

[6] = molecular target: T1, α-syn fibrils; experiment: Fluorescent properties of ligand-α-syn fibril complex; format: physicochemical
[7] = molecular target: T2, Aβ fibrils (Homo sapiens, UniProt P05067); experiment: Fluorescent properties of ligand-Aβ fibril complex; format: physicochemical
T2 sequence (P05067 672-711): as the sequence (P05067 672-711 limits assumed) above

[8] = molecular target: T1, α-syn fibrils; settings: read-out: Kd α-syn; fibril saturation binding; cited from earlier work
[9] = molecular target: T2, Aβ fibrils; settings: read-out: Kd Aβ; fibril saturation binding; cited from earlier work
[10] = Table 1, synthetic α-syn fibrils 2.5 μM, 1 hour
[11] = Table 3 and text, α-syn fibrils, saturation binding

Sequence of tau fibrils (Tau-441, 2N4R) (P10636 1-441 isoform P10636-8): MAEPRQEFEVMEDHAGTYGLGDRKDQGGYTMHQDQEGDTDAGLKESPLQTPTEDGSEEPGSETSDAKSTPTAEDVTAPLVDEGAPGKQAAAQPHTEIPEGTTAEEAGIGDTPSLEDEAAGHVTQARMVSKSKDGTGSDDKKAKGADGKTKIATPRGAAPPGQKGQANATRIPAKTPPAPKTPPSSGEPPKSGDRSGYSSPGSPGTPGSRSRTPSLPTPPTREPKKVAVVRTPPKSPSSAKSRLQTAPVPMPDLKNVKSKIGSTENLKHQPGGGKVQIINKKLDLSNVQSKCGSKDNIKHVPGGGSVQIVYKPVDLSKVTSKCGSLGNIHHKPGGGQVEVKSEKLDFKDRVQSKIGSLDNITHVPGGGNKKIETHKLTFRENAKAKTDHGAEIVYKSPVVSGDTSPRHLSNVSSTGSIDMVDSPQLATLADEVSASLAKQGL

Row | Structure (SMILES) | Kd [1] [nM] | α-syn versus tau binding selectivity [1] [x] | Kd [2, 10] [nM] | Kd [2, 11] [nM] | selectivity for α-syn fibrils compared with amyloid-β (Aβ) and tau fibrils [2] | Selectivity α-syn v/s Aβ [2] [x] | Fluorescence quantum yield Free ligand [3] | Absmax [3] | Emmax [3] | Kd [5] [nM] | Absmax Ligand + α-syn [6] | Emmax Ligand + α-syn [6] | Fluorescence quantum yield Ligand + α-syn [6] | Absmax Ligand + Aβ [7] | Emmax Ligand + Aβ [7] | Fluorescence quantum yield Ligand + Aβ [7] | labeling of Aβ pathology in AD brain sections [4] | Kd [8] [nM] | Kd [9] [nM]
1 | COc1cc(/C=C/C=C2\Cc3ccccc3C2=O)ccc1O [compound 8, (E)-2-((E)-3-(4-Hydroxy-3-methoxyphenyl)allylidene)-2,3-dihydro-1H-inden-1-one] | 388 ± 38.2 | 43 | 9 ± 0.5 | 9 ± 0.5 | greater than 10 x | 15.6 | 0.0079 | 405 | 542 | 140 ± 4.2 | 446 | 585 | 0.078 | 441 | 579 | 0.1363 | mostly dense core Aβ plaques in the ligand channel (column II) but not the finer aggregates composed of diffuse plaques; also recorded: highlights mostly dense core Aβ plaques |  | 
2 | CN(C)c1ccc(-c2cc(-c3ccnc(Br)c3)[nH]n2)cc1 [[^11C]MODAG-001] |  |  |  |  |  |  |  |  |  |  |  |  |  |  |  |  |  | 0.6 ± 0.1 | 20 ± 10

Further lines, with some results ahead:

Row | Kd [1] [nM] | α-syn versus tau binding selectivity [1] [x] | Kd [2, 10] [nM] | Kd [2, 11] [nM] | selectivity for α-syn fibrils compared with amyloid-β (Aβ) and tau fibrils [2] | Selectivity α-syn v/s Aβ [2] [x] | Fluorescence quantum yield Free ligand [3] | Absmax [3] | Emmax [3] | Kd [5] [nM] | Absmax Ligand + α-syn [6] | Emmax Ligand + α-syn [6] | Fluorescence quantum yield Ligand + α-syn [6] | Absmax Ligand + Aβ [7] | Emmax Ligand + Aβ [7] | Fluorescence quantum yield Ligand + Aβ [7] | Structure (SMILES) | labeling of Aβ pathology in AD brain sections [4] | Kd [8] [nM] | Kd [9] [nM]
3 | 579 ± 30.6 | 30.8 |  | 18.8 ± 4 | greater than 10 x |  | 0.0104 | 392 | 563 | 491 ± 58.9 | 448 | 586 | 0.1125 | 443 | 583 | 0.2498 | O=C(O)c1ccc(-c2ccc(/C=C/C=C3\Cc4ccc(O)cc4C3=O)cc2)cc1 [compound 32, 4'-((E)-3-((E)-6-Hydroxy-1-oxo-1,3-dihydro-2H-inden-2-ylidene)prop-1-en-1-yl)-[1,1'-biphenyl]-4-carboxylic acid] |  |  | 
4 |  |  | 92.9 ± 6.3 | 92.9 ± 6.3 |  | 2.7 | 0.0050 | 387 | 547 | 250 ± 37.1 | 465 | 572 | 0.0596 | 478 | 581 | 0.1130 | COc1ncc(-c2ccc(/C=C3/Cc4ccccc4C3=O)s2)c(OC)n1 [compound 42, (Z)-2-((5-(2,4-Dimethoxypyrimidin-5-yl)thiophen-2-yl)methylene)-2,3-dihydro-1H-inden-1-one] |  |  | 
5 |  |  | 85.1 ± 13.4 | 85.1 ± 13.4 |  | 1.7 | 0.0051 | 401 | 549 | 144 ± 13 | 447 | 587 | 0.0763 | 454 | 584 | 0.1890 | COc1cc(/C=C/C=C2\CCc3ccccc3C2=O)ccc1O [compound 23, (E)-2-((E)-3-(4-Hydroxy-3-methoxyphenyl)allylidene)-3,4-dihydronaphthalen-1(2H)-one] |  |  | 
